The first data set has as its target T1, human GLP-1R receptor (Homo sapiens, UniProt P43220).
T1 construct: expressed in transfected cells; host or cells: 'GLP-1R cells' (frozen vial)
Briefly: GLP-1R cAMP assay (HTRF, HEK293 cells expressing GLP-1R). Format: cell-based. The note with it: agonistic activity, GLP-1R HEK293 cells. On the procedure:
Test Embodiment 1: Activity Test of GLP-1R cAMP Assay
This experiment aims to verify the agonistic activity of the compound of the present disclosure on human GLP-1R receptor.
Compounds were diluted 4-fold starting at 100 μM from DMSO using Bravo for a total of 10 points.
The reference compound polypeptide GLP-1 (7-37) was diluted 4-fold starting from 500 nM in DMSO using Bravo for a total of 10 points.
b) Preparation of Cell Suspension: • 1) 1 vial of GLP-1R cells was quickly thawed in a 37° C. water bath. • 2) The suspension of the cells was transferred to 10 mL of HBSS in a 15 mL conical tube. • 3) The cells were centrifuged at 1000 rpm for 5 min at room temperature to precipitate the cells. • 4) The supernatant was gently aspirated, and being careful not to aspirate the cells. • 5) The cells were relaxed by flicking the precipitation, and then the cell precipitation was re-suspended in 10 mL of HBSS. A sterile pipette was used to move fluid up and down to remove clumps. • 6) The concentration of cells was counted and the cell viability on Vi-cell was determined. • 7) GLP-1R cells were re-suspended in the test buffer at a concentration of 2.0×E5/mL cells. • 8) 10 μL of GLP-1R cell was transferred to OptiPlate-384 well plate.
c) Transfer of Compound: • 1) 100 nL of compound was transferred to OptiPlate-384 plate using Echo Transfer. • 2) The plate was rotated at 1000 rpm for 5 seconds.
d) HTRF cAMP Analysis of Agonists: • 1) The plate was incubated at room temperature for 30 minutes before adding detection reagents. • 2) An electric multi-channel pipette was used to add 10 μL of detection reagents respectively. • 3) The 384 well plate was covered with TopSeal-A membrane and incubated for 60 min at room temperature.
TopSeal-A was unloaded and read on EnVision.
T1 sequence (P43220 24-463): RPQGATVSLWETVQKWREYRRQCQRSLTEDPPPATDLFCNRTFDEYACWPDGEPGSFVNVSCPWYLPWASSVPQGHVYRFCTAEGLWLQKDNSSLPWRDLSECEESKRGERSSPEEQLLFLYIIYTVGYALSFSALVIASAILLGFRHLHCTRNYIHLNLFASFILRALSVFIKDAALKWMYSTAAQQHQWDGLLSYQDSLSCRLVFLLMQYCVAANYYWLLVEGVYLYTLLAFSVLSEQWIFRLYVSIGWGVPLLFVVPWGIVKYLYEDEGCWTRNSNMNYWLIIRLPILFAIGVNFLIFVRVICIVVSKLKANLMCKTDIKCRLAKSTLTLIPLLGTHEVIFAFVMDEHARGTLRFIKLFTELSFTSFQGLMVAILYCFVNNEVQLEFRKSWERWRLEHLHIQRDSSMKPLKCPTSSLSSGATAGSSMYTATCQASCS
Consider `O=C(O)c1ccc2nc(CN3CCC(c4ccccc4OCc4ccc(Cl)cc4F)CC3)n(C[C@@H]3CCO3)c2n1` [Compound 22], for which the EC50 (usually the concentration at which the effect is half-maximal) turned out to be 2.1 nM.
On the same count and under the same terms, under `CN(Cc1ccc(Cl)cc1F)c1ccccc1C1CCN(Cc2nc3ccc(C(=O)O)cc3n2C[C@@H]2CCO2)CC1` [Compound 16] stands more than 100 nM; under `Cn1c(CN2CCC(c3ccccc3OCc3ccc(Cl)cc3F)CC2)nc2ccc(C(=O)O)cc21` [Compound 24], more than 100 nM.
With `O=C(O)c1ccc2nc(CN3CCC(c4ccc(F)cc4OCc4ccc(Cl)cc4F)CC3)n(C[C@@H]3CCO3)c2c1` [Compound 13], a half-maximal response (EC50) required 5.8 nM. This counts as single-digit nanomolar.
The same measure, in the same setting: to `O=C(O)c1ccc2nc(CN3CCC(c4c(F)cccc4OCc4ccc(Cl)cc4F)CC3)n(C[C@@H]3CCO3)c2c1` [Compound 6] belongs 8.1 nM.
In turn, `N#Cc1ccc(COc2c(F)cccc2C2CCN(Cc3nc4ccc(C(=O)O)cc4n3C[C@@H]3CCO3)CC2)c(F)c1` [Compound 2] came in with an EC50 of 0.8 nM.
Still for that read-out and setting: under `CC1(c2ccccc2OCc2ccc(Cl)cc2F)CCN(Cc2nc3ccc(C(=O)O)cc3n2C[C@@H]2CCO2)CC1` [Compound 28] stands more than 100 nM; under `CC1CN(Cc2nc3ccc(C(=O)O)cc3n2C[C@@H]2CCO2)CCC1c1ccccc1OCc1ccc(Cl)cc1F` (some centres unmarked) [Compound 29], more than 100 nM.
On the same count and under the same terms, under `COc1cccc(C2CCN(Cc3nc4ccc(C(=O)O)cc4n3C[C@@H]3CCO3)CC2)c1OCc1ccc(Cl)cc1F` [Compound 5] stands 15 nM; under `CCn1cncc1Cn1c(CN2CCC(c3ccccc3OCc3ccc(Cl)cc3F)CC2)nc2ccc(C(=O)O)cc21` [Compound 25], more than 100 nM; under `O=C(O)c1ccc2nc(Cc3ccc(-c4ccccc4OCc4ccc(Cl)cc4F)cc3)n(C[C@@H]3CCO3)c2c1` [Compound 20], 24.6 nM.
In turn, `CC1CN(Cc2nc3ccc(C(=O)O)cc3n2C[C@@H]2CCO2)CC(C)C1c1ccccc1OCc1ccc(Cl)cc1F` (some centres unmarked) [Compound 30] displayed an EC50 of more than 100 nM.
In the case of `O=C(O)c1ccc2nc(CC3CCN(c4ccccc4OCc4ccc(Cl)cc4F)CC3)n(C[C@@H]3CCO3)c2c1` [Compound 19], the EC50 was more than 100 nM.
The same measure, in the same setting: to `O=C(O)c1ccc2nc(CN3CCC(c4cccc(F)c4OCc4ccc(Cl)cc4F)CC3)n(C[C@@H]3CCO3)c2c1` [Compound 4] belongs 0.7 nM; to `[2H]C([2H])(c1nc2ccc(C(=O)O)cc2n1C[C@@H]1CCO1)N1CCC(c2ccccc2OCc2ccc(Cl)cc2F)CC1` [Compound 27], 2.3 nM; to `O=C(O)c1ccc2nc(CN3CCC(c4cccc(F)c4OCc4ccccc4F)CC3)n(C[C@@H]3CCO3)c2c1` [Compound 7], 5 nM.
Molecule `O=C(O)c1ccc2nc(CN3CCC(c4cccnc4OCc4ccc(Cl)cc4F)CC3)n(C[C@@H]3CCO3)c2c1` [Ref-02, reference compound] showed an EC50 of 1 nM.
`O=C(O)c1ccc2nc(C3(N4CCC(c5ccccc5OCc5ccc(Cl)cc5F)CC4)CC3)n(C[C@@H]3CCO3)c2c1` [Compound 23] came in with an EC50 of more than 100 nM.
The same measure, in the same setting: under `[2H]C([2H])(Oc1ccccc1C1CCN(Cc2nc3ccc(C(=O)O)cc3n2C[C@@H]2CCO2)CC1)c1ccc(Cl)cc1F` [Compound 26] stands 1.8 nM; under `O=C(O)c1ccc2nc(CN3CCC(c4ccccc4OCc4ccc(F)cc4F)CC3)n(C[C@@H]3CCO3)c2c1` [Compound 8], 3.2 nM.
On to `O=C(O)c1ccc2nc(CN3CCC(c4ccccc4SCc4ccc(Cl)cc4F)CC3)n(C[C@@H]3CCO3)c2c1` [Compound 17], for which the 50% effective concentration (EC50) is 53 nM. This EC50 is about 17-fold higher than that of the molecule before.
Same read-out and setting: to `CC(Oc1ccccc1C1CCN(Cc2nc3ccc(C(=O)O)cc3n2C[C@@H]2CCO2)CC1)c1ccc(Cl)cc1F` (some centres unmarked) [Compound 10] belongs 26 nM; to `O=C(O)c1ccc2nc(CN3CCC(c4ccccc4OCc4ccc(Cl)cc4Cl)CC3)n(C[C@@H]3CCO3)c2c1` [Compound 11], 2.9 nM.
The molecule `O=C(O)c1ccc2nc(CN3CCN(c4ccccc4OCc4ccc(Cl)cc4F)CC3)n(C[C@@H]3CCO3)c2c1` [Compound 18] came in with an EC50 of 10.7 nM.
`O=C(O)c1ccc2nc(CN3CCC(c4ccccc4NCc4ccc(Cl)cc4F)CC3)n(C[C@@H]3CCO3)c2c1` [Compound 15] yielded an EC50 of 7.5 nM.
Same read-out and setting: under `O=C(O)c1ccc2nc(CC3CCC(c4ccccc4OCc4ccc(Cl)cc4F)CC3)n(C[C@@H]3CCO3)c2c1` (some centres unmarked) [Compound 21] stands more than 100 nM; under `O=C(O)c1ccc2nc(CN3CCC(c4cc(F)ccc4OCc4ccc(Cl)cc4F)CC3)n(C[C@@H]3CCO3)c2c1` [Compound 14], 3.7 nM.
Still for that read-out and setting: under `N#Cc1ccc(COc2ccccc2C2CCN(Cc3nc4ccc(C(=O)O)cc4n3C[C@@H]3CCO3)CC2)c(F)c1` [Compound 1] stands 3.4 nM; under `O=C(O)c1ccc2nc(CN3CCC(c4cccc(OCc5ccc(Cl)cc5F)n4)CC3)n(C[C@@H]3CCO3)c2c1` [Ref-01, reference compound], 1 nM; under `O=C(O)c1ccc2nc(CN3CCC(c4ccccc4OCc4ccc(Cl)cn4)CC3)n(C[C@@H]3CCO3)c2c1` [Compound 9], 34.8 nM.
In the case of `Cc1ccc(COc2ccccc2C2CCN(Cc3nc4ccc(C(=O)O)cc4n3C[C@@H]3CCO3)CC2)c(F)c1` [Compound 12], the EC50 is 1 nM.

System in a further data set: not listed separately
Briefly: Pharmacokinetic evaluation in rats (gavage). Format: in vivo. The note with it: rat, 10 mg/kg single oral gavage, plasma. On the procedure:
Test Embodiment 2: Pharmacokinetic Evaluation in Rats
The drug concentrations in the plasma of rats were tested at different times after the administration of the compounds by gavage using rats as test animals. The pharmacokinetic behavior of the compounds of the present disclosure in rats was studied and their pharmacokinetic characteristics were evaluated. In each group of embodiments, 3 rats with similar body weight were selected and administered orally at a dose of 10 mg/kg for a single administration. Blood was collected from animals at 15 min, 30 min, 1 h, 2 h, 4 h, 6 h, 8 h, 12 h, 24 h time points after administration. The LC-MS/MS analysis method was used to detect the content of the compound in plasma, and the lower limit of quantification of the method was 20 ng/mL. Concentration data in plasma was counted using the metabolic kinetic data analysis software WinNonlin 7.0, and the pharmacokinetic parameters were calculated using the non-compartmental analysis (NCA), as shown in Table 2 below.
Drug configuration: A certain amount of drug was taken, added with 2% Klucel LF+0.1% Tween 80 aqueous solution to prepare a clear solution or a uniform suspension.
Administration: Rats were administered by gavage after overnight fasting at a dose of 10 mg/kg.
Operation: Rats were administered by gavage, and blood was collected from the tail vein before administration and 15 min, 30 min, 1 h, 2 h, 4 h, 6 h, 8 h, 12 h, 24 h after administration, placed in heparinized sample tubes, centrifuged at 4° C., 3500 rpm for 10 min to separate plasma, stored at −20° C., and fed 2 hours after administration.
Determination of the content of test compounds in rat plasma after drug administration by gavage: 50 μL of plasma samples were thawed at room temperature, added with 130 μL of internal standard working solution (1000 ng/mL, acetonitrile, tolbutamide), vortexed for about 1 min and then centrifuged for 10 min at 4° C. and 13000 rpm. 50 μL of supernatant was mixed with 100 μL of 50% acetonitrile in water, and then the sample was injected for LC/MS/MS analysis.
Take `O=C(O)c1ccc2nc(CN3CCC(c4cccc(F)c4OCc4ccc(Cl)cc4F)CC3)n(C[C@@H]3CCO3)c2c1` [Compound 4]: the AUC(0-inf) – broadly, total exposure, with the tail of the curve extrapolated – stood at 0.417 µg·h/mL; the Cmax (commonly the highest concentration seen after dosing) turned out to be 0.09 µg/mL; the Tmax (in general, the time from dosing to the highest level) came out at 0.83 h; the half-life (as a rule, the time in which the quantity being followed falls by half) is 2.11 h.
Turning to `O=C(O)c1ccc2nc(CN3CCC(c4cccnc4OCc4ccc(Cl)cc4F)CC3)n(C[C@@H]3CCO3)c2c1` [Ref-02, reference compound], the AUC(0-inf) came out at 0.229 µg·h/mL, the concentration peaked (Cmax) at 0.171 µg/mL, the Tmax is 0.25 h and the half-life is 5.52 h.
Taken in the same sequence, the figures for `O=C(O)c1ccc2nc(CN3CCC(c4cccc(OCc5ccc(Cl)cc5F)n4)CC3)n(C[C@@H]3CCO3)c2c1` [Ref-01, reference compound] were 0.351 µg·h/mL, 0.105 µg/mL, 0.33 h and 3.2 h.
In the case of `Cc1ccc(COc2ccccc2C2CCN(Cc3nc4ccc(C(=O)O)cc4n3C[C@@H]3CCO3)CC2)c(F)c1` [Compound 12], the AUC(0-inf) came out at 1.32 µg·h/mL, the highest level (Cmax) was 1.02 µg/mL, the Tmax was determined as 0.25 h and the half-life was 2.68 h.
